Assay results as given in publication PMC10313368 (The Journal of Clinical Investigation, 2023).
Where “and” joins values, the source holds several entries; their conditions need not be identical. Identical values can stand only once. Residues, ends and D or L forms follow the SMILES beside them. *: point of attachment. Cbz = O=C(OCc1ccccc1)*

Legend:
[1] = molecular target: HIF-1α (Homo sapiens, UniProt Q16665); test: Immunoblot of HIF-1α accumulation in MIO-M1 cells cultured in hypoxia; format: cell-based; design: endogenous in cells; host or cells: MIO-M1; details: MIO-M1, hypoxia 4 hours; MG-132 10 μM, bortezomib 10 μM, bafilomycin 10 nM
Chain of HIF-1α (Q16665 whole entry): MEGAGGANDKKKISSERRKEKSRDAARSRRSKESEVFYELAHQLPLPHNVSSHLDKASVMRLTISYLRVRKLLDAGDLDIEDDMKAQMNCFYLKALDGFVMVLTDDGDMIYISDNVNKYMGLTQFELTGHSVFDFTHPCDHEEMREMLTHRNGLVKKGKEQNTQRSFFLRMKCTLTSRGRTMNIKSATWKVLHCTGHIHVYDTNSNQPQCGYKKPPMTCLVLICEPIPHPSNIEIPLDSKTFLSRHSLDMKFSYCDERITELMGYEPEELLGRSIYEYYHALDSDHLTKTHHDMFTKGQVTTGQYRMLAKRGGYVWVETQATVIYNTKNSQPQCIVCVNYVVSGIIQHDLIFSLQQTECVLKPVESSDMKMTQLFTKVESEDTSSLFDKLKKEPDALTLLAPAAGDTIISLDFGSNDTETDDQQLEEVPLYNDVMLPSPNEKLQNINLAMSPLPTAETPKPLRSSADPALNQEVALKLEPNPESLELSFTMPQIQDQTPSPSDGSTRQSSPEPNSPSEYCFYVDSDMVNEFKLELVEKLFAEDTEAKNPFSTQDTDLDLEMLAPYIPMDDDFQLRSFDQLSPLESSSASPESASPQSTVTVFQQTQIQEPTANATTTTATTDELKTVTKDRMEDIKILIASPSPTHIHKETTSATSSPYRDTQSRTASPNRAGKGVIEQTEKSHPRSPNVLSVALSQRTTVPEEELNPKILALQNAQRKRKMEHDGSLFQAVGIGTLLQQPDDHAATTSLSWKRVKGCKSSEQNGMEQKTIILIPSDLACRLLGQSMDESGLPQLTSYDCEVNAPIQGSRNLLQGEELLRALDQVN
Description: (§1) MIO-M1, HUVECs, and ARPE19 cells were cultured in DMEM with 10% (vol/vol) FBS (Quality Biological) and 1% penicillin/streptomycin (Cellgro). A hypoxic chamber (Coy Laboratory Product Inc.; Two Glove Model) with 5% CO2, 94% N2, and 1% O2 gas concentration at 37°C was used to culture hypoxic cells. The control cells were cultured in an incubator maintained at 37°C, with 21% O2 and 5% CO2. […] Aflibercept was obtained from the Johns Hopkins University Pharmacy.
(§2) Immunoblot assays. Cells, neurosensory retina, and D120 retinal organoid lysates were subjected
(§3) to 4–15% gradient SDS/PAGE (Invitrogen). Immunoblot (Western blot or WB) assays were
(§4) performed as previously described (1). […]

[2] = molecular target: HIF-2α (Homo sapiens, UniProt Q99814); test: Immunoblot of HIF-2α accumulation in MIO-M1 cells cultured in hypoxia; format: cell-based; design: endogenous in cells; host or cells: MIO-M1; details: MIO-M1, hypoxia 4 hours; MG-132
Chain of HIF-2α (Q99814 whole entry): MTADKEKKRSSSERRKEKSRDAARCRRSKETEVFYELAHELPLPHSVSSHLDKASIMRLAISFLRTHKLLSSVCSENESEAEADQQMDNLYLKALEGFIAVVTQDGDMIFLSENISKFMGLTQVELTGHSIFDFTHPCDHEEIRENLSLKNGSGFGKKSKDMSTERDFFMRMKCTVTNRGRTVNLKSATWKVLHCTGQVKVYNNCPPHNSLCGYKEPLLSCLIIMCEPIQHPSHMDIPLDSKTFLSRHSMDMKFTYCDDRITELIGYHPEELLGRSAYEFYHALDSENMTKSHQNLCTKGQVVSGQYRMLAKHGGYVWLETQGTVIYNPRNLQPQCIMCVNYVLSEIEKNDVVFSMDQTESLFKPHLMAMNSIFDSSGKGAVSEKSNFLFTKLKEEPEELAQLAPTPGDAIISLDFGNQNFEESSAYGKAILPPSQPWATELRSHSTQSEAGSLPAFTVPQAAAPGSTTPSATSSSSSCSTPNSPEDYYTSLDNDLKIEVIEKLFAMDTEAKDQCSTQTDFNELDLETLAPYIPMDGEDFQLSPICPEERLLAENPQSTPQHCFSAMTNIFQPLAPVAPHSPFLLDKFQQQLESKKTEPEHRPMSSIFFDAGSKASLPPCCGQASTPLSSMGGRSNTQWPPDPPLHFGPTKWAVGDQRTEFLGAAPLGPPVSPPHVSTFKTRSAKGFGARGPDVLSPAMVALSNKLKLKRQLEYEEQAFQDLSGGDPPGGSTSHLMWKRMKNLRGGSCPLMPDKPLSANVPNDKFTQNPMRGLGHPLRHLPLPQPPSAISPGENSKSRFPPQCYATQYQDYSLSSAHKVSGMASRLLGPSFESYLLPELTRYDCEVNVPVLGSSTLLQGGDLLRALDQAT
Description: as §1, §2, §3, §4

[3] = test system: STZ-induced diabetic mice; test: Vascular permeability by Evans blue tracer method in STZ mice; format: in vivo, mouse; details: digoxin treatment, mice hyperglycemic for 6 months
Description: (§5) STZ-induced diabetes mouse model. 8-to-10 week-old male mice received an IP injection of STZ at 40 mg/kg of body weight in 0.1M of citrate buffer (pH 4.5) for 5 consecutive days. Normal chow and 10% sucrose water were provided during this period. 10% sucrose was discontinued and replaced with regular water on experimental day 6. […]
Intraocular injections. Intravitreal injections were performed with a PLI-100A Pico-liter Microinjector (Warner Instruments, Harvard Bioscience) using pulled-glass micropipettes. Each micropipette was calibrated to deliver a 1 μl volume on depression of a foot switch. […]
Images were captured with Zeiss fluorescent microscope. Eight fields per eye (2 fields per petal) including area of neovascularization were selected and fluorescence intensity was measured by ImageJ software. […]
The eyes were enucleated and immediately immersed in 4% (wt/vol) paraformaldehyde for 2 hours at room temperature. […] Images were captured by Zeiss fluorescent microscope or confocal microscopy and fluorescence was quantified by the image J software (National Institutes […]
of Health, Bethesda, MD). Blinded quantification of the number of leaking vessels was performed by manual counting of major leakage from capillaries from retinas of each group. […] Random fields were chosen from retinas where leakages were absent to determine baseline fluorescence that arise from capillaries. […]

[4] = test system: OIR mice; test: Retinal NV in the oxygen-induced retinopathy (OIR) mouse model; format: in vivo; details: for OIR NV%: Figure 14D
From the text: To characterize the contribution of these other HIF-regulated angiogenic factors to the promotion of ischemia-driven retinal NV in vivo, we used the classic oxygen-induced retinopathy (OIR) model characterized by Smith and colleagues ([35]). In stage 1 of this model, P7 pups are exposed to hyperoxia (75% O2) for 5 consecutive days (P7–P12), resulting in obliteration of the posterior retinal vasculature. In stage 2, pups (at P12) are returned to room air (21% O2). The resulting relative ischemia promotes the expression of angiogenic mediators that stimulate the development of retinal NV (peaking at P17; Figure 2A). […]
(§6) Animal studies. Eight-week-old pathogen-free female C57BL/6 mice were obtained from The Jackson Laboratory (JAX). Timed pregnant C57BL/6 mice were obtained from Charles River Laboratories. Mice heterozygous for HIF-1α have been previously described (2). Mice heterozygous for HIF-2α (strain number: 003266; common name: EPAS1 KO) were purchased […]
(§7) OIR mouse model. OIR experiments were performed as previously described (1, 3). Briefly, C57BL/6 mice were placed in 75% O2 on P7. On P12, the mice were returned to room air and were […]
(§8) (or vehicle) by intravitreal injection. Mice with body weight less than 6 g at P17 were excluded […]
(§9) from analysis. Data were collected from both males and females and the results were combined since there was no apparent difference between sexes. Representative images for selected time points from a minimum of three independent experiments are shown. Data from 3-8 pups were obtained at each time point. […]
(§10) Intraperitoneal (IP) injections. […]
(§11) intraperitoneally using an insulin syringe in OIR pups. […]
(§12) the peritoneal cavity of neonatal C57BL/6 mice and STZ mice at indicated times, and the retinal vasculature and lysates for WB and qPCR were assessed at P17.
(§13) Intraocular injections. Intravitreal injections were performed with a PLI-100A Pico-liter Microinjector (Warner Instruments, Harvard Bioscience) using pulled-glass micropipettes. Each micropipette was calibrated to deliver a 1 μl volume on depression of a foot switch. The mice were anesthetized with a ketamine (100 mg/kg) and xylazine (5mg/kg) mixture, and under a dissecting microscope, the sharpened tip of the micropipette was passed through the sclera just posterior to the limbus into the vitreous cavity and the foot switch was depressed, which caused fluid to […]
penetrate into the vitreous space. […]
mice for vascular permeability test, retinal vasculature, and lysates for WB and qPCR analysis.
Immunoﬂuorescence assays. Details for antibodies are provided in Supplemental Table 1.
Immunofluorescence assays in retinal organoids and mouse retinal tissues were performed as previously described (4). Briefly, mice were sacrificed using CO2 asphyxiation, and the eyes were enucleated and fixed with a solution of 4% paraformaldehyde in PBS (Thermo Scientific™) for two hours at RT, followed by washing with PBS for 10 minutes in a shaker. Retinas were isolated and incubated in 0.5% BSA solution overnight at 4 °C. Retinas were then washed with PBS 3 times for 10 minutes in the shaker and stained with isolectin B4 (Invitrogen; 1:200 dilution in PBS) overnight at 4 °C. After washing 3 times for 10 minutes each in the shaker, the retinas were mounted. Images were captured with Zeiss fluorescent microscope. Eight fields per eye (2 fields per petal) including area of neovascularization were selected and fluorescence intensity was measured by ImageJ software. […]
The eyes were enucleated and immediately immersed in 4% (wt/vol) paraformaldehyde for 2 hours at room temperature. Retinas were isolated and wholemounts prepared on clean glass slides and mounted vitreous side up under coverslips with antifade medium (Vectashield; Vector Laboratories, Burlingame, CA). Images were captured by Zeiss fluorescent microscope or confocal microscopy and fluorescence was quantified by the image J software (National Institutes

[5] = test system: HIF-regulated angiogenic mediators; test: mRNA expression of HIF-regulated vasoactive mediators in OIR mouse retina (qPCR); format: in vivo
Description: (§14) Reverse transcription and quantitative real-time PCR. Total RNA was isolated from cultured cells or retinas with PureLinkTM RNA Mini Kit (Invitrogen #12183025), and cDNA was prepared with MuLV Reverse Transcriptase (Applied Biosystems). Quantitative real-time PCR was performed with Power SYBR Green PCR Master Mix (Applied Biosystems) and MyiQ Real-Time PCR Detection System (Bio-Rad). Normalization was done using cyclophilin A for mouse tissue and human cell lines. Primers are listed in Supplemental Table 2. […]
as §6, §7, §8, §9, §10, §11, §12, §13

[6] = test system: HIF-regulated vasoactive mediators; test: mRNA expression of HIF-regulated vasoactive mediators in retina of STZ-induced diabetic mice (qPCR); format: in vivo, mouse
Description: as §14
as §5, with “6. Blood glucose was measured on experimental day 28 after 16 hours fasting and mice with blood glucose level > 250 mg/dL were considered” for “6.”
as §10

[7] = OIR mice P17, Digoxin i.p. 2mg/kg at P12, NON-OIR about 1, replicates, Figure 2C, 2 mg/kg
[8] = digoxin 2 mg/kg i.p. at P12, P17
[9] = STZ mice + Digoxin, control about 1, replicates, Figure 4F

CC(C)C[C@@H](C=O)NC(=O)[C@H](CC(C)C)NC(=O)[C@H](CC(C)C)NC(=O)OCc1ccccc1 [MG-132, reference compound] (Cbz-Leu-Leu-Leu-aldehyde)
effect of pretreatment on 32-134D inhibition of HIF-1α accumulation [1]: prevented the ability of 32-134D to block HIF-1α and HIF-2α protein accumulation | effect of pretreatment on 32-134D inhibition of HIF-2α accumulation [2]: prevented the ability of 32-134D to block HIF-1α and HIF-2α protein accumulation

CO/C1=C\C(C)=C\[C@@H](C)[C@@H](O)[C@@H](C)C/C(C)=C/C=C/[C@H](OC)[C@@H]([C@@H](C)[C@@H](O)[C@H](C)[C@@]2(O)C[C@@H](O)[C@H](C)[C@@H](C(C)C)O2)OC1=O [bafilomycin, reference compound]
effect of pretreatment on 32-134D inhibition of HIF-1α accumulation [1]: did not prevent 32-134D from inhibiting HIF-1α accumulation

CC(C)C[C@H](NC(=O)[C@H](Cc1ccccc1)NC(=O)c1cnccn1)B(O)O [bortezomib, reference compound]
effect of pretreatment on 32-134D inhibition of HIF-1α accumulation [1]: corroborated

C[C@H]1O[C@@H](O[C@H]2[C@@H](O)C[C@H](O[C@H]3[C@@H](O)C[C@H](O[C@H]4CC[C@@]5(C)[C@H](CC[C@@H]6[C@@H]5C[C@@H](O)[C@]5(C)[C@@H](C7=CC(=O)OC7)CC[C@]65O)C4)O[C@@H]3C)O[C@@H]2C)C[C@H](O)[C@@H]1O [digoxin, reference compound]
vascular permeability in STZ mice (in words) [3]: decreased vascular permeability | neovascular area (%) ([4]; OIR mice at P17, single i.p. digoxin 2 mg/kg at P12, individual values, Figure 2A): 0.786% and 0.8973% and 1.637% and 0.108% and 0.7093% and 1.719% | retinal NV in the OIR model (in words) ([4]; digoxin 2 mg/kg single i.p. at P12, read at P17): prevented retinal NV | Vegfa mRNA ([5]; OIR mice P17, Digoxin i.p. 2mg/kg at P12, NON-OIR about 1, replicates, Figure 2B, 2 mg/kg): 4.361 and 3.814 and 4.0024 | Angpt2 mRNA [5, 7]: 1.359 and 1.263 and 1.386 | Angptl4 mRNA [5, 7]: 1.389 and 1.31 and 1.599 | Pdgfb mRNA [5, 7]: 3.611 and 3.067 and 2.999 | Ptprb mRNA [5, 7]: 0.8633 and 0.7662 and 0.7639 | Serpine1 mRNA [5, 7]: 13.6912 and 13.3012 and 10.8019 | expression of VEGF in OIR mice (in words) [5, 8]: only modestly inhibiting the expression of VEGF | expression of other vasoactive genes in OIR mice (in words) [5, 8]: modest reduction | Angptl4 mRNA [6, 9]: 0.6214 and 1.778 and 1.462 | Vegfa mRNA [6, 9]: 0.79 and 0.8827 and 0.5987 | Vegf and Angptl4 mRNA expression in STZ mice (in words) ([6]; digoxin treatment): decrease in Vegf and Angptl4 mRNA expression to levels similar to those in nondiabetic mice

aflibercept: FDA-approved anti-VEGF therapy for DME and PDR [reference compound]
OIR NV% ([4]; 100ng i.v., individual values): 10.6252% and 10.4463% and 8.931% and 10.009% and 8.751% and 10.316% | OIR NV% ([4]; 200ng i.v., individual values): 6.75% and 9.52% and 8.9161% and 6.123% and 11.2235% and 10.084% | OIR NV% ([4]; 400ng i.v., individual values): 2.501% and 5.995% and 9.1174% and 1.799% and 6.421% and 2.903%
